“Also recorded” adds a separate entry of the source.

In test [1] the test system is adult sensory neuron cultures from STZ-induced diabetic rats. In words: Mitochondrial respiration (OCR) in adult sensory neuron cultures. The note with it: 1 μM for 3 h. Format: cell-based, rat. As for the experimental part:
Mitochondrial respiration in adult mouse sensory neuron cultures from wild type control mice, M1 receptor knockout mice (M1R KO), and from diabetic mice that received dosing with 1 μM of VU0255035 for 3 h, were assessed following the methods taught by Roy Chowdhury et al. (2012). The M1R knockout mice were a gift from Dr. Jurgen Wess (Molecular Signaling Section, Laboratory of Bioorganic Chemistry, National Institute of Diabetes and Digestive and Kidney Diseases, National Institutes of Health).
This bioenergetics parameter, which is depressed in diabetes, is related to the capacity of cells to conduct respiration under conditions of stress or high ATP demand. In this regard we propose the stress is the presence of high intracellular glucose concentrations.

Test [2] has as its target T1, type 1 muscarinic receptor (M1R) (Homo sapiens, UniProt P11229).
T1 sequence (P11229 1-460): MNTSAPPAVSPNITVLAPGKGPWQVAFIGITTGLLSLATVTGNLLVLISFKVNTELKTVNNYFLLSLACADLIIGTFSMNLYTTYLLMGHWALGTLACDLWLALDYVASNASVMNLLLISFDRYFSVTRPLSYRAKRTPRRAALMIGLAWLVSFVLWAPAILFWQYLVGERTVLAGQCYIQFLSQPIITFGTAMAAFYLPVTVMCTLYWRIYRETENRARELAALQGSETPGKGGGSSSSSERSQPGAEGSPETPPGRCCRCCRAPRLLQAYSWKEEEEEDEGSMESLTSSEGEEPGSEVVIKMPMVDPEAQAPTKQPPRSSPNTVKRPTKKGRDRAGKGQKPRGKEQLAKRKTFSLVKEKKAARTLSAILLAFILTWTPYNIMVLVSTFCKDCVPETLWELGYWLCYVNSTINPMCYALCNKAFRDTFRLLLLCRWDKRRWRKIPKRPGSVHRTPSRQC
The conditions noted are these: cited from earlier work.

For test [3], the system named is adult sensory neuron cultures derived from STZ-induced diabetic rats. In words: Neurite outgrowth in sensory neuron cultures transduced with dominant negative AMPK mutants. Format: cell-based, rat. The note with it: 1.0 μM pirenzepine; adenovirus dominant negative AMPK mutants AdDN1/AdDN2. Here is the method: Adult sensory neuron cultures derived from STZ-induced diabetic rats were transduced for two days after treatment with 1.0 μM pirenzepine, with two adenovirus over-expressing dominant negative mutants of AMPK, i.e., AMPK subunit α1 and α2 mutants named “AdDN1” and “AdDN2” (the adenovirus over-expressing dominant negative mutants were gifts from Dr. Jason Dyck, University of Alberta) following the procedure taught by Roy Chowdhury et al., (2012).

The test system of test [4] is cultured adult rat sensory neurons. Format: cell-based. The conditions noted are these: gp120 24 hours. As for the experimental part:
To further extend our investigation of the actions of muscarinic receptor antagonists on nerve growth, cultured adult rat sensory neurons were treated for 24 hours with recombinant gp120, an external coat protein of HIV that causes toxicity to sensory neurons in HIV neuropathy (FIG. 24). This toxicity leads to axon degeneration and neuronal cell death. Cultures were treated with 1 μM pirenzpeine and total neurite outgrowth determined. […] Values are means±SEM. n=6.

Test [5] relates to STZ-induced diabetic rats. In words: Motor and sensory nerve conduction velocity in STZ-induced diabetic rats. Format: in vivo, rat. The note with it: 5 mg/kg s.c., 8 weeks; p<0.05 vs vehicle-treated diabetic rats. Here is the method: The STZ rat is a model of type 1 diabetes. Rats were treated with 5 mg/kg (s.c.) pirenzepine for 8 weeks following the method taught by Calcutt et al. (2003, Therapeutic efficacy of sonic hedgehog protein in experimental diabetic neuropathy. J. Clin. Invest. 111:507-514). Nerve conduction velocities (NCV) were determined following the methods taught by Mizisin et al. (2004, Ciliary Neurotrophic Factor Improves Nerve Conduction and Ameliorates Regeneration Deficits in Diabetic Rats. Diabetes 53:1807-12). […] All data are group mean±SEM (N=5-6 group). Statistical analysis by one-way ANOVA with Dunnett's post-hoc test.

The test system of another test is PGC-1α. In words: PGC-1α transcriptional activity, luciferase reporter in adult sensory neurons. Format: cell-based, rat. The conditions noted are these: neurons from STZ-induced diabetic rats. Here is the method: PGC-1α transcriptional activity was determined in dissociated adult sensory neurons derived from STZ-induced diabetic rats by transfection for two days with luciferase-based reporter plasmids by following the methods taught in the AMAXA® NUCLEOFECTOR® II Manual (www.amaxa.com; AMAX and NUCLEOFECTOR are registered trademarks of Amaxa GmBH Corp., Koln, Fed. Rep. Germany) and by Saleh et al. (2013, Ciliary neurotrophic factor activates NF-κB to enhance mitochondrial bioenergetics and prevent neuropathy in sensory neurons of streptozotocin-induced diabetic rodents. Neuropharmacology 65:65-75) (the luciferase-based reporter plasmids were a gift from Dr. Michael Czubryt, University of Manitoba).
A general note: In a reporter assay the amount or activity of a reporter protein is the signal.

Test [6] has as its system DCA-treated Swiss Webster mice. The conditions noted are these: pirenzepine 10 mg/kg/day s.c.
Experimental: Swiss Webster mice were treated with DCA (1 mg/kg/day s.c.) for 8 weeks to induce peripheral neuropathy following the method described for rats by Calcutt et al. (2009, Peripheral neuropathy in rats exposed to dichloroacetate. J. Neuropath. Exp. Neurol. 68:985-93). Some DCA-treated mice were also treated with pirenzepine (Pz: 10 mg/kg/day s.c.) for the duration of the study while others were treated with vehicle alone.
Test [7] relates to adult sensory neurons from normal rats. In words: Neurite outgrowth of sensory neurons exposed to paclitaxel or oxaliplatin. The format is cell-based, rat. The conditions noted are these: 24 hours, pirenzepine 0.1, 1.0 or 10 μM. As for the experimental part: Adult sensory neurons from normal rats were cultured for 24 hours in the presence of(A) paclitaxel (PX; 0.1 μM or 0.3 μM), or (B) oxaliplatin (OX; 3.0 μM). From time of plating some cultures were treated with 0.1, 1.0 or 10 μM pirenzepine (PZ). Levels of total neurite outgrowth were determined and presented as means±SEM, N=6-8/group. Significant differences were assessed in(A) by t-test, and in(B) by one-way ANOVA with Dunnett's post-hoc test.

For test [8], the system named is paclitaxel-treated Swiss Webster mice. Format: in vivo, mouse. The note with it: pirenzepine daily s.c. for 4 weeks (10 mg/kg/day, also printed 1 mg/kg/day). As for the experimental part:
Swiss Webster mice were treated with paclitaxel (taxol; 5 mg/kg on days 1,3,5 and 7) to induce peripheral neuropathy. […] Data points are group mean of n=9-12/group±SEM. Significant differences were determined with a oneway ANOVA followed by Dunnett's post-hoc test.

Test [9] deals with AMP-activated protein kinase (AMPK). Nature of the test: AMPK phosphorylation (Western blot) in cultured adult sensory neurons. Format: cell-based, rat. The note with it: for P-AMPK level: 1.0 μM, 15-60 min. As for the experimental part:
Subsets of cultured adult sensory neurons derived from age-matched control rats or 3-5 month STZ-induced diabetic rats were treated with a 1.0 μM pirenzepine-HCl dosage. The first subset was processed immediately while the second, third and fourth subsets of the neurons from the control rats and the diabetic rats were processed after 15 min, after 30 min, and after 60 min respectively following treatment with pirenzepine. The cell cultures were lysed and then used to prepare Western blots which were then probed with antibodies against phosphorylated AMPK (P-AMPK), total AMPK (T-AMPK) and total ERK (T-ERK). […] Values are means±SEM, N=3/group. Statistical significance was analyzed using one-way ANOVA with Tukey's post-hoc test.

Test [10] concerns cultured adult rat sensory neurons. Nature of the test: Total neurite outgrowth in cultured adult sensory neurons. Format: cell-based. The conditions noted are these: cultured adult sensory neurons from normal adult rodents. From the text:
The fundamental hypothesis is that blocking endogenous cholinergic constraint using a muscarinic receptor antagonist will promote re-growth of neurons in patients with established peripheral neuropathy. This occurs via activation of AMPK and PGC-1α and the subsequent augmentation of mitochondrial function. This pathway comprises a proximal step involving M1 receptor antagonist-dependent activation of CaMKKβ (or CaMKK2). This hypothesis is supported by extensive preclinical data using in vitro and in vivo model systems. […] A specific requirement for M1 receptor antagonism is confirmed by the increased neurite outgrowth from sensory neurons derived from M1R KO mice.
The highly specific M1 receptor antagonist, MT7 (muscarinic toxin 7), enhanced neurite outgrowth in cultured adult rat sensory neurons (FIGS. 9(A), 9(B), 10). The data in FIG. 10 are means±SEM of 9 replicate cultures. Significant differences were determined by one-way ANOVA with Dunnett's post-hoc test.

A further test concerns adult Swiss Webster mice. In words: Corneal nerve occupancy by confocal microscopy in normal mice given MT7 eye drops. Format: in vivo, mouse. The conditions noted are these: daily eye drops; day 11 vs day 2, p<0.05. Here is the method: To further extend our investigation of the actions of muscarinic receptor antagonists on nerve growth, we treated normal mice with the M1 receptor-specific antagonist MT7 by daily delivery to the eyes for 11 days and used confocal microscopy to provide a non-invasive and therefore iterative assessment of corneal nerve density.
A group (n=8) of adult Swiss Webster mice received daily treatment with MT7, which was given by eye drops (20 μl volume) in saline. Nerve occupancies in the sub-basal nerve plexus (SBNP 1-5) and upper stromal (Stroma 1-10) regions of the cornea were measured on day 2 and day 11 of treatment (FIG. 23). […] Data are group means (N=8)±SEM.

The target in a further test is T2, M1 receptor (Homo sapiens, UniProt P11229).
T2 sequence (P11229 1-460): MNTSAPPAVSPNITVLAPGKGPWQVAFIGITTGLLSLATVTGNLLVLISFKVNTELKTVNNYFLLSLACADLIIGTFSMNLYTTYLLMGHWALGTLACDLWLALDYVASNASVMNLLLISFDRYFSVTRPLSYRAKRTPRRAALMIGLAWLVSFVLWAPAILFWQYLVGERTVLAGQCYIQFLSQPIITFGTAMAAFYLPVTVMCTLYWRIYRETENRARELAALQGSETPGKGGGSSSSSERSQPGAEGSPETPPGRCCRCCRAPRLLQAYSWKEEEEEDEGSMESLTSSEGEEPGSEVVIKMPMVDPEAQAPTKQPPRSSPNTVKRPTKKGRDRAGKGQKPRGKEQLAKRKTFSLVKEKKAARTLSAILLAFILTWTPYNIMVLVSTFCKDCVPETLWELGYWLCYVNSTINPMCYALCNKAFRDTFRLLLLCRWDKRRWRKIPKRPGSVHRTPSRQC
The note with it: cited from earlier work.

`O=C(CCNS(=O)(=O)c1cccc2nsnc12)N1CCN(c2ccncc2)CC1` [VU0255035]: in [1], the coupling efficiency entry is on record as “not dissimilar”, the “oxygen consumption rate (OCR)” value is reported as “increased” and the respiratory control ratio result was “not dissimilar”. For the same molecule, in test [1] (compared to controls), the spare respiratory capacity result is “significantly increased”. For the same molecule, the “selectivity to M1R relative to M2, M3, M4 and M5 receptors” value in [2] is 75 times.

Turning to `CN1CCN(CC(=O)N2c3ccccc3C(=O)Nc3cccnc32)CC1` [pirenzepine], the “pirenzepine-induced neurite outgrowth under blockage of AMPK signaling” value in [3] is listed as “completely inhibited”. The “protection from gp120-induced neurite degeneration” value in test [4] (1 μM, P<0.05) is listed as “complete protection”. For the same molecule, in [5], the “motor nerve conduction velocity (MNCV) slowing” value is listed as “attenuated” and the “sensory nerve conduction velocity (SNCV) slowing” value is on record as “attenuated”. Besides, in the test with PGC-1α (1 μM), the “transcriptional activity of PGC-1α” value is given as “enhanced”. Moreover, in test [6] (8 weeks), the “depletion of paw skin IENF” value was “prevented” and the paw thermal hypoalgesia entry is “prevented”. In addition, the “onset of MNCV slowing” value in test [6] (after 4 weeks of exposure) is given as “delayed onset”. The “reduced neurite outgrowth caused by oxaliplatin” value in test [7] (oxaliplatin 3.0 μM) is “prevented”. Further, the “reduced neurite outgrowth caused by paclitaxel” value in test [7] (paclitaxel 0.1 or 0.3 μM) is on record as “prevented”. Also, in [8], the “tactile allodynia (paw 50% tactile response threshold)” value is “prevented” and the “thermal hyperalgesia (paw thermal response latency)” value was “prevented”. Besides, in [9] (cultures from normal (age-matched control) rats), the P-AMPK level result is “significantly activated”. Also, the P-AMPK level entry in [9] (cultures from type 1 (STZ) diabetic rats) is recorded as “significantly activated”.

B1: MT7: 64-66 amino acid protein derived from the African green mamba snake; most specific antagonist of the M1 receptor (protein, UniProt Q8QGR0 22-86, looked up)
Muscarinic toxin 7: LTCVKSNSIWFPTSEDCPDGQNLCFKRWQYISPRMYDFTRGCAATCPKAEYRDVINCCGTDKCNK
Turning to B1, the total neurite outgrowth entry in test [10] is reported as “enhanced; also recorded: dose-dependently elevated”. In addition, in test [4] (not shown), the “level of protection from gp120 treatment” value is on record as “approximately 50%”. In addition, the “transcription of PGC-1α” value with PGC-1α (MT7 treatment) was “activated”. In addition, in the test with adult Swiss Webster mice, the “nerve occupancy in the sub-basal nerve plexus (SBNP 1-5) of the cornea” value is reported as “increased significantly” and the “nerve occupancy in the upper stromal (Stroma 1-10) region of the cornea” value was “increased significantly”. The “concentrations at which it binds to an allosteric site on the M1 receptor” value with M1 receptor (allosteric site) was “low nanomolar”. In addition, the “selectivity for M1 receptors over M2-M5” value in the test with M1 receptor is given as 10,000 fold. Moreover, the AMPK phosphorylation result in test [9] (MT7, neurons from age-matched control rats) is recorded as “enhancement”.

The values are drawn from patent publication US20250090545A1, “METHODS AND COMPOSITIONS FOR TREATMENT OF PERIPHERAL NEUROPATHIES” (UNIVERSITY OF MANITOBA, priority 2013, published 2025).
